{"source": "patent US8394774B2", "about": "“Pesticidal compositions” (Dow AgroSciences, LLC., priority 2009, dated 2013)", "key": {"[1]": {"tested_on": "beet armyworm (BAW; Spodoptera exigua: Lepidoptera)", "experiment": "128-well diet tray assay on beet armyworm (BAW 50)", "assay_type": "in vivo", "conditions": "144 h, read-out: BAW 50", "description": "(§1) Bioassays on beet armyworm (BAW; Spodoptera exigua: Lepidoptera) were conducted using either a 96-well microtiter plate-based high throughput (HTS) bioassay or a 128-well diet tray assay. The HTS assay is based on a modification of Lewer et al. J. Nat. Prod. 2006, 69, 1506. BAW eggs were placed on top of artificial diet (100 μL) in each well of a 96-well microtiter plate. The diet was pretreated with test compounds (12 μg dissolved in 30 μL of DMSO-acetone-H2O mixture) layered on top of the diet using a liquid handling system and then allowed to dry for several hours. Infested plates were then covered with a layer of sterile cotton batting and the plate lid, and then held in the dark at 29° C. Mortality was recorded at 6 days post-treatment. Each plate had six replicates. The percent mortality was calculated from the average of the six replicates. In the case of the 128-well diet assay, three to five second instar BAW larvae were placed in each well (3 mL) of the diet tray that had been previously filled with 1 mL of artificial diet to which 50 ug/cm^2 of the test compound (dissolved in 50 μL of 90:10 acetone-water mixture) had been applied (to each of eight wells) and then allowed to dry. Trays were covered with a clear self-adhesive cover, and held at 25° C., 14:10 light-dark for six days. Percent mortality was recorded for the larvae in each well; activity in the eight wells was then averaged. In Table 4, under both the BAW HTS and BAW 50 headings, an “A” means that the compound was tested and at least 50 percent mortality was observed whereas, “B” means that either (1) the compound was tested and less than 50 percent mortality was observed or (2) the compound was not tested."}, "[2]": {"tested_on": "beet armyworm (BAW; Spodoptera exigua: Lepidoptera)", "experiment": "96-well microtiter plate-based high throughput (HTS) bioassay on beet armyworm (BAW HTS)", "assay_type": "in vivo", "conditions": "144 h, read-out: BAW HTS", "description": "as §1"}}, "data": [{"smiles": "CCO[C@@H]1[C@@H](OC)[C@H](C)O[C@@H](OC(=O)Nc2ccc(/N=N/c3ccc(OC(F)(F)C(F)(F)F)cc3)cc2)[C@@H]1OC", "note": "[Compound 22, [4-(4-Pentafluoroethyloxyphenylazo)-phenyl]-carbamic acid (2S,3R,4R,5S,6S)-4-ethoxy-3,5-dimethoxy-6-methyl-tetrahydropyran-2-yl ester]", "values": [{"measurement": "pest or weed control at 50 µg/cm2, 50 µg/cm2", "setting": "[1]", "value": "> 50", "unit": "%"}, {"measurement": "pest or weed control at 12 µg/well, 12 µg/well", "setting": "[2]", "value": "> 50", "unit": "%"}]}]}
